From patent publication US11072616B2, “Cyclic peptides targeting alpha-4-beta-7 integrin” (Zealand Pharma A/S, priority 2015, dated 2021)
Read-outs that look alike come from different tables or passages of the source.

Columns and labels:
DSS-treated mice = test: 8-day efficacy study in DSS model (therapeutic) of ulcerative colitis; format: in vivo, C57Bl/6 mice; conditions: for reduction of DAI score: Day 8 vs DSS+vehicle; for reduction of lesion length: vs control vehicle treated-group
Experimental: Animals. Female C57Bl/6 mice (Charles River, St-Constant, Qc), weighting 16-19 g at delivery were used for this study. Following arrival in the animal facility, all animals were subjected to a general health evaluation. An acclimation period of 7-14 days was allowed before the beginning of the study.
Oral dosing of the test article and the vehicle. From Day 5 to Day 8, nacellins and the vehicle were administered as a single slow bolus (over approximately 5 seconds) via oral route (p.o.), according to the procedure of administration of solution by gavage: the animal was firmly restrained. A bulb-tipped gastric gavage needle of 22G was passed through the side of the mouth and was advanced towards the oesophagus. The test articles and the vehicle were dosed orally at 5 mL/kg.
Intraperitoneal dosing of the test articles and the vehicle. On day 5, DATK32 antibody was administered in only on Day 5, as a single slow bolus (over approximately 5 seconds) via the i.p. route. […] Intraperitoneal administration was performed accordingly to the following procedure: the mouse was restrained manually and held with the head and body tilted downward. The tip of the needle (27 G) was inserted through the skin and just past the abdominal wall. A short pull back of the plunger of the syringe was done prior to administration of the solution to make sure that the syringe was not inserted in any abdominal organ (fluid would be pulled back into the syringe in this case).
Inflammation Score. Once the mouse was euthanized, the colon was collected and its length was measured. Lesion length was also measured. Colon inflammation was scored based on severity of oedema and ulceration.
Disease Activity Index (DAI) assessment. Body weight and DAI were measured on Day 5 in order to distribute DSS-treated animals in two uniform groups prior dosing. Specific symptoms associated to UC were scored based on the severity of each particular symptoms: 1—blood in stool (negative hemoccult, positive hemoccult, blood traces in stool visible, rectal bleeding); 2—stool consistency (normal, soft but still formed, very soft, diarrhea); 3—posture and fur (normal; ruffled fur; ruffled fur combined to slight hunched posture and slight dehydration; ruffled fur combined to hunched posture, dehydration and altered walking; moribund (euthanasia is mandatory before the animal reach this point). The overall DAI score was the sum of the three parameters (maximum score 9). Body weight measurement and DAI assessment were performed also on Day 8 to evaluate the effect of the treatments.

[1] = system: CD3+CD4+α4β7+ T lymphocytes; test: FACS analysis of T lymphocyte populations, 8-day DSS study; format: in vivo, C57Bl/6 mice
Source text: Collection of samples. On Day 8, five hours after ET02451-01, ET02452-01 and vehicle dosing, the animals were euthanized by cardiac puncture under general anesthesia, according to the “Guide to the Care and Use of Experimental Animals” published by the CCAC. Blood was transferred in a Sarstedt tube containing EDTA. Mesenteric and peripheral (inguinal, auxiliary and brachial) lymph nodes were collected and transferred on ice in corresponding tubes containing cold PBS. Nodes were kept on ice until tissue preparation.
Cell population labeling. Blood was withdrawn by cardiac puncture and collected on EDTA-coated tubes. Mensenteric lymph nodes (MLN) and peripheral lymph nodes (PLN) were also collected. Mononuclear cells from the tissues will be isolated using density gradient (Lympholyte) and they were stained with fluorescent antibodies. […] After washes, cells were fixed using BD Fix Solution. Percentage of different subpopulations of T lymphocytes were then analysed using FACSCalibur cytometer. Antibodies employed were the same as listed for the single-dose PD studies above.

[2] = mouse, in vivo
Experimental: (§1) Oral bioavailability of test compounds was conducted by assessing plasma exposure of following one or two oral doses in mice and, in some cases, comparing said plasma exposure with that following a single intravenous dose of the same compound.
(§2) Body weights were recorded on the day of dosing.
(§3) Dosing: The formulation containing the test compound were administered p.o. by gavage with disposable feeding needles.
(§4) Sample processing/storage: All blood samples were transferred into K2EDTA tubes on wet ice and centrifuged within 5 min (3200×g for 5 min at 4° C.) to obtain plasma. Samples were stored frozen at −80° C. until bioanalysis.
(§5) Instrumentation: AB Sciex API 4000 Q-TRAP MS/MS system equipped with an Agilent LC system with a binary pump, a solvent degasser, a thermostatted column compartment, a CTC autosampler and a divert valve installed between the column and mass spectrometer inlet.

[3] = In vivo pharmacokinetic assessment, colon; design: species or system CD-1 mice; conditions: for tmax: colon, naïve mice
[4] = In vivo pharmacokinetic assessment, liver; design: species or system CD-1 mice
Source text: In Vivo Pharmacokinetic Assessments in Rodents
The livers will be blotted and weighed.

[5] = In vivo pharmacokinetic assessment, plasma; conditions: naïve mice
Experimental: as §1, §2, §3, §4, §5

CC(C)C[C@@H]1NC(=O)c2ccc(-c3ccnc4ccccc34)c(c2)CNC(=O)[C@@H]2CCCN2[C@H](C(=O)NC(C)(C)C)[C@H](C)NC(=O)[C@H]([C@@H](C)O)NC(=O)[C@H](CC(=O)O)NC1=O [ET02452]
reduction of DAI score (DSS-treated mice; i.p.: ET02452-01 65 mg/kg Day 5-8, DATK32 15 mg/kg Day 5): 46% | reduction of lesion length (DSS-treated mice; i.p.: ET02452-01 65 mg/kg, DATK32 15 mg/kg Day 5): 20% | reduction of DAI score (DSS-treated mice; oral 40 mg/kg, Day 5 to Day 8): did not have any beneficial effect | reduction of lesion length (DSS-treated mice; oral 40 mg/kg): 53% | CD3+CD4+α4β7+ cell population in mesenteric lymph nodes ([1]; i.p.: ET02452 65 mg/kg, DATK32 15 mg/kg): significant decrease | oral bioavailability / absorption (in words) ([2]; po): low oral bioavailability

CC(C)C[C@@H]1NC(=O)c2ccc(-c3ccc(N4CCNCC4)cc3)c(c2)CNC(=O)[C@@H]2CCCN2[C@H](C(=O)NC(C)(C)C)[C@H](C)NC(=O)[C@H]([C@@H](C)O)NC(=O)[C@H](CC(=O)O)NC1=O [ET02451]
tmax ([3]; single i.v. 5 mg/kg): 2.00 h | tmax ([3]; single p.o. 40 mg/kg): 2.00 h | oral bioavailability in colon ([3]; mouse, in vivo): ~100% | AUC0-inf ([3]; mouse, in vivo, iv, 5 mg/kg): 17140 ng·h/mL | AUC0-tlast ([3]; mouse, in vivo, iv, 5 mg/kg): 17109 ng·h/mL | MRT0-inf ([3]; mouse, in vivo, iv, 5 mg/kg): 3.43 h | half-life in colon ([3]; mouse, in vivo, po): greater than 21 hours | AUC0-inf ([3]; mouse, in vivo, po, 40 mg/kg): 145327 ng·h/mL | AUC0-tlast ([3]; mouse, in vivo, po, 40 mg/kg): 130746 ng·h/mL | MRT0-inf ([3]; mouse, in vivo, po, 40 mg/kg): 4.59 h | tmax ([4]; liver, single i.v. 5 mg/kg, naïve mice): 0.0833 h | bioavailability in the liver ([4]; mouse, in vivo): ~8% | main route of elimination ([4]; mouse, in vivo): hepatobiliary clearance | AUC0-inf ([4]; mouse, in vivo, iv, 5 mg/kg): 8460 ng·h/mL | AUC0-tlast ([4]; mouse, in vivo, iv, 5 mg/kg): 8289 ng·h/mL | MRT0-inf ([4]; mouse, in vivo, iv, 5 mg/kg): 2.00 h | half-life in liver ([4]; mouse, in vivo, po): ~8 h | AUC0-inf ([4]; mouse, in vivo, po, 40 mg/kg): 6054 ng·h/mL | AUC0-tlast ([4]; mouse, in vivo, po, 40 mg/kg): 6024 ng·h/mL | MRT0-inf ([4]; mouse, in vivo, po, 40 mg/kg): 2.11 h | tmax ([4]; mouse, in vivo, po, 40 mg/kg): 2.00 h | reduction of DAI score (DSS-treated mice; oral 40 mg/kg, Day 5 to Day 8): 15% | lesion/colon length (DSS-treated mice; oral 40 mg/kg, vehicle group 40%): 12% | reduction of lesion length (DSS-treated mice; oral 40 mg/kg): significantly reduced the lesion length | CD3+CD4+α4β7+ cell population in mesenteric lymph nodes ([1]; p.o. 40 mg/kg): significant decrease | F ([2]; iv, 5 mg/kg): 100% | elimination half-life in plasma ([2]; po): ~0.5 h | oral bioavailability / absorption (in words) ([2]; po): significant absorption from the gut and systemic exposure following oral dosing | AUC0-tiast ([2]; po, 40 mg/kg): 686 ng·h/mL | F ([2]; po, 40 mg/kg): 11.0% | AUC0-tiast ([5]; single i.v. 5 mg/kg): 778 ng·h/mL | tmax ([5]; single i.v. 5 mg/kg): 4.98 min | Cmax ([5]; single p.o. 40 mg/kg): 4638 ng/mL
